# Assay results reported in patent publication EP2578588A1 (World-Trade Import-Export Wtie, AG, priority 2010, dated 2011).
# Biological target: enzyme PDE-5 (Homo sapiens, UniProt O76074)
# Experiment: Phosphodiesterase 5 (PDE-5) inhibition activity in in vitro tests
# Assay type: biochemical
# Details: read-out: CI5C
# From the text: The following data illustrate the inhibiting activity of the compounds of the present invention on the enzyme PDE-5.
row,SMILES,IC50
1,CCCc1nn(C)c2c(=O)[nH]c(-c3cc(S(=O)(=O)N4CCCN(CCCO)CC4)ccc3OCC)nc12 [Compound 4],1.8 nM
2,"CCCc1nn(C)c2c(=O)[nH]c(-c3cc(S(=O)(=O)N4CCCN(C(=O)OC(C)(C)C)CC4)ccc3OCC)nc12 [Compound 5, tert-butyl 4-(4-ethoxy-3-(1-methyl-7-oxo-3-propyl-6,7-dihydro-1H-pyrazolo[4,3-d]pyrimidin-5-yl)phenylsulfonyl)-1,4-diazepane-1-carboxylate]",3.5 nM
3,"CCCc1nn(C)c2c(=O)[nH]c(-c3cc(S(=O)(=O)N4CCCN(C)CC4)cnc3OCC)nc12 [Compound 6, 5-(2-ethoxy-5-(4-methyl-1,4-diazepan-1-ylsulfonyl)pyridin-3-yl)-1-methyl-3-propyl-1H-pyrazolo[4,3-d] pyrimidin-7(6H)-one]",2.2 nM
4,CCCc1nn(C)c2c(=O)[nH]c(-c3cc(S(=O)(=O)N4CCCN(CCC(=O)O)CC4)ccc3OCC)nc12 [Compound 7],1.2 nM

# The next lines start with the values.
row,IC50,SMILES
1,4.2 nM,"CCCc1nn(C)c2c(=O)[nH]c(-c3cc(S(=O)(=O)N4CCCNCC4)ccc3OCC)nc12 [Compound 1, 5-(5-(1,4-diazepan-1-ylsulfonyl)-2-ethoxiphenyl)-1-methyl-3-propyl-1H-pyrazolo[4,3-d]pyrimidin-7(6H)-one]"
2,6.4 nM,"CCCc1nn(C)c2c(=O)[nH]c(-c3cc(S(=O)(=O)N4CCCN(C(C)=O)CC4)ccc3OCC)nc12 [Compound 2, 5-(5-(4-acetyl-1,4-diazepan-1-ylsulfonyl)-2-ethoxyphenyl)-1-methyl-3-propyl-1H-pyrazolo[4,3-d]pyrimidin-7(6H)-one]"
3,2.8 nM,"CCCc1nn(C)c2c(=O)[nH]c(-c3cc(S(=O)(=O)N4CCCN(C)CC4)ccc3OCC)nc12 [Compound 3, 5-(2-ethoxy-5-(4-methyl-1,4-diazepan-1-ylsulfonyl)phenyl)-1-methyl-3-propyl-1H-pyrazolo[4,3-d]pyrimidin-7(6H)-one]"
